Test results published in PubChem BioAssay AID1949 (Southern Research Institute, 2009).
In brackets after ≈: the same amount, converted by molar mass. Results filed as inconclusive are left out. Activity calls are given as the source filed them. How the calls were made is not given here.

Tested on: M. tuberculosis H37Rv growth inhibition
Assay: Confirmatory growth inhibition assay against Mycobacterium tuberculosis H37Rv, potency (AID 1949);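 further: bacteria grown 7 days with compound before Alamar blue readout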

O=C(CCN1C(=O)C2C3C=CC(C4CC34)C2C1=O)Oc1cccc2cccnc12 (stereo not drawn) was tested. Which IC50 did it give?
Its IC50 is 1.46 µg/mL (≈ 3.76 µM).

How did the IC50 turn out when Clc1ccc(C2=CC(c3ccc(Cl)cc3)n3nnnc3N2)cc1 (stereo not drawn) was run?
The IC50 was 2.07 µg/mL (≈ 6.01 µM).

Which IC50 does the source give for Cc1ccc(-c2cc(C(=O)N3CCCc4ccccc43)no2)cc1 here?
The IC50 was 9.33 µg/mL (≈ 29.3 µM).

For c1ccc2sc(NC3=NCN(Cc4ccc5c(c4)OCO5)CN3)nc2c1, which IC50 is on record?
The IC50 was 1.52 µg/mL (≈ 4.14 µM).

COC(=O)Cc1c(C)c2ccc(OCC(=O)Nc3cc(C)cc(C)c3)cc2oc1=O was tested. Which IC50 did it give?
Its IC50 is 0.2 µg/mL (≈ 0.488 µM).

Which IC50 does the source give for COc1cccc(C(=O)OCc2cccc(C(=O)Oc3ccccc3)c2)c1 here?
Its IC50 is 9.15 µg/mL (≈ 25.2 µM).

Cc1ccc(CNC(=O)c2ccc(C)cc2Cl)cc1 was tested. Which IC50 did it give?
The IC50 was > 50 µg/mL (inactive).

For CCn1c2ccccc2c2cc(NC(=O)C34CCC(C)(C(=O)C3)C4(C)C)ccc21 (stereo not drawn), which IC50 is on record?
The IC50 was 11.5 µg/mL (≈ 29.7 µM).

With CCOC(=O)COc1ccc2cc(-c3nc4ccccc4o3)c(=O)oc2c1 as the compound, how does the IC50 read?
Its IC50 is 3.3 µg/mL (≈ 9.03 µM).

Cc1ccc(C(=O)NCCC2=CCCCC2)cc1Br was tested. Which IC50 did it give?
The IC50 was 3.14 µg/mL (≈ 9.74 µM).

How did the IC50 turn out when Cc1c(C(=O)Nc2ccc(Cl)cc2)sc(N)c1C(=O)OC(C)C was run?
The IC50 was 7.88 µg/mL (≈ 22.3 µM).

Oc1ccc(Br)cc1-c1nc(-c2cccs2)c(-c2cccs2)[nH]1 was tested. Which IC50 did it give?
The IC50 was 1.55 µg/mL (≈ 3.84 µM).

For COc1cc([N+](=O)[O-])ccc1NC(=S)Nc1ccc(OC(F)F)c(Cl)c1, which IC50 is on record?
The IC50 was 3.41 µg/mL (≈ 8.44 µM).

CC(=O)N1CCN(c2ccc(NC(=S)NC(=O)c3cc4ccccc4o3)cc2)CC1 was tested. Which IC50 did it give?
The IC50 was 2.74 µg/mL (≈ 6.49 µM).

Which IC50 does the source give for Cc1cccc(C(=O)NC(=S)N2CCC(C)CC2)c1 here?
The IC50 was 2.97 µg/mL (≈ 10.7 µM).

For CCCS(=O)(=O)c1nnnn1-c1cccc(OC)c1, which IC50 is on record?
The IC50 was 0.65 µg/mL (≈ 2.3 µM).

How did the IC50 turn out when CC1=NN(C(=O)c2ccccc2)C(O)(c2ccncc2)C1 (stereo not drawn) was run?
The IC50 was under 0.1 µg/mL.

OC(CNC1CCCC1)Cn1c2ccccc2c2ccccc21 (stereo not drawn) was tested. Which IC50 did it give?
The IC50 was 8.93 µg/mL (≈ 29 µM).

For CC(=O)Oc1ccc2nc(-c3ccc(C)c(C)c3)oc(=O)c2c1, which IC50 is on record?
The IC50 was > 50 µg/mL (inactive).

O=C(Oc1cccc2cccnc12)c1ccco1 was tested. Which IC50 did it give?
Its IC50 is 0.75 µg/mL (≈ 3.14 µM).

CCc1ccc(Oc2coc3cc(OC(C)C(=O)OC)ccc3c2=O)cc1 (stereo not drawn) was tested. Which IC50 did it give?
The IC50 was 3.05 µg/mL (≈ 8.28 µM).

Which IC50 does the source give for CC1CCN(c2cc(/C=C(\C#N)c3nn(-c4ccccc4)c(N)c3C#N)c3ccccc3n2)CC1 here?
Its IC50 is > 50 µg/mL (inactive).

How did the IC50 turn out when O=S(=O)(CCSc1nc2ccccc2s1)c1nc2ccccc2s1 was run?
The IC50 was 7.23 µg/mL (≈ 18.4 µM).

For Cn1c(Sc2cnn(-c3ccccc3)c(=O)c2Br)nnc1-c1ccccc1, which IC50 is on record?
The IC50 was 2.81 µg/mL (≈ 6.38 µM).

COc1cc(OC)cc(C(=O)NC(=S)N2CCCCCC2)c1 was tested. Which IC50 did it give?
The IC50 was 2.83 µg/mL (≈ 8.78 µM).

With COC(=O)COc1cccc(NC(=O)c2ccc(Cl)cc2)c1 as the compound, how does the IC50 read?
The IC50 was 0.21 µg/mL (≈ 0.657 µM).

With Cc1ccc(-c2cc(C(F)F)n3ncc(C(=O)N4CCc5ccccc5C4)c3n2)cc1 as the compound, how does the IC50 read?
Its IC50 is 38.3 µg/mL (≈ 91.6 µM).

For CC(Oc1ccc(C(C)(C)C)cc1)c1nc(-c2ccncc2)no1 (stereo not drawn), which IC50 is on record?
The IC50 was 22.8 µg/mL (≈ 70.6 µM).

How did the IC50 turn out when CC(C)(C)c1ccc(C(=O)NC(=S)Nc2ccc(F)cc2)cc1Br was run?
The IC50 was 2.51 µg/mL (≈ 6.13 µM).

Which IC50 does the source give for CCC(C)c1ccc(OCC(=O)Nc2ccc(OC)c([N+](=O)[O-])c2)cc1 (stereo not drawn) here?
The IC50 was 1.61 µg/mL (≈ 4.49 µM).

How did the IC50 turn out when Cc1ccc(-n2sc3ccccc3c2=O)cc1 was run?
Its IC50 is under 0.1 µg/mL.

For O=C(CNS(=O)(=O)c1cccc(C(F)(F)F)c1)N1CCN(c2ccc(Cl)c(Cl)c2)CC1, which IC50 is on record?
The IC50 was 4.79 µg/mL (≈ 9.65 µM).

For O=C(/C=C/c1cccc(C(F)(F)F)c1)Nc1cccc(Br)c1, which IC50 is on record?
Its IC50 is 1.39 µg/mL (≈ 3.76 µM).

For O=C(CC(O)(C(F)(F)F)C(F)(F)F)Nc1ccc(Oc2ccccc2)cc1, which IC50 is on record?
Its IC50 is 7.49 µg/mL (≈ 19 µM).

COc1ccc(NC(=S)NC(=O)CCc2ccccc2)cc1 was tested. Which IC50 did it give?
The IC50 was 1.92 µg/mL (≈ 6.11 µM).

For O=C(CCNc1ccc(Cc2ccncc2)cc1)c1ccc([N+](=O)[O-])cc1, which IC50 is on record?
The IC50 was 4.37 µg/mL (≈ 12.1 µM).

With O=C(COc1ccc(Cl)cc1Cl)Oc1cccc2cccnc12 as the compound, how does the IC50 read?
Its IC50 is 5.88 µg/mL (≈ 16.9 µM).

How did the IC50 turn out when CN1CCN(C(=S)NC(=O)c2ccc(-c3ccccc3)cc2)CC1 was run?
Its IC50 is 1.04 µg/mL (≈ 3.06 µM).

Which IC50 does the source give for O=C(Nc1cccc(Cl)c1)c1cc(Br)ccc1Cl here?
Its IC50 is 1.53 µg/mL (≈ 4.43 µM).

Cc1ccc(Cn2cnc3cc(C)c(C)cc32)cc1 was tested. Which IC50 did it give?
Its IC50 is 8.24 µg/mL (≈ 32.9 µM).

Which IC50 does the source give for CC1CCCc2sc(NC(=S)NC(=O)c3ccccc3)c(C#N)c21 (stereo not drawn) here?
The IC50 was 0.94 µg/mL (≈ 2.64 µM).

With COc1cc(/C=C/c2ccc3cccc(O)c3n2)cc([N+](=O)[O-])c1O as the compound, how does the IC50 read?
Its IC50 is 0.41 µg/mL (≈ 1.21 µM).

Which IC50 does the source give for CCN1C(=O)c2cccc3cc([N+](=O)[O-])cc(c23)C1=O here?
Its IC50 is under 0.1 µg/mL.

For O=C(NCc1cccs1)c1cc2n(n1)C(C(F)(F)F)CC(c1ccc3c(c1)OCO3)N2 (stereo not drawn), which IC50 is on record?
Its IC50 is 1.5 µg/mL (≈ 3.33 µM).

For O=C(CSc1ccc(Cl)cc1)Nc1ccc(Cl)c(C(F)(F)F)c1, which IC50 is on record?
The IC50 was 3.18 µg/mL (≈ 8.36 µM).

NC(=O)c1c(NC(=O)c2cc3ccccc3oc2=O)sc2c1CCCCCC2 was tested. Which IC50 did it give?
The IC50 was 1.03 µg/mL (≈ 2.6 µM).

With COc1cc(CNCc2ccccc2)c(Br)cc1OC1CCCC1 as the compound, how does the IC50 read?
The IC50 was 10.5 µg/mL (≈ 27 µM).

With O=[N+]([O-])c1ccc(N2CCN(C(=S)NCc3ccc(Cl)cc3)CC2)cc1 as the compound, how does the IC50 read?
Its IC50 is 2.58 µg/mL (≈ 6.6 µM).

CC(C)(C)c1ccc(C(=O)NC(=S)Nc2cccc(C#N)c2)cc1 was tested. Which IC50 did it give?
Its IC50 is > 50 µg/mL (inactive).

How did the IC50 turn out when O=C(Nc1ccc(Cl)cc1)c1cc([N+](=O)[O-])ccc1O was run?
Its IC50 is 17.7 µg/mL (≈ 60.6 µM).

How did the IC50 turn out when COc1ccc(Br)cc1C(=O)Nc1ccc(N2CCN(C(=O)C(C)C)CC2)c(Cl)c1 was run?
The IC50 was 5.08 µg/mL (≈ 10.3 µM).

CC(=O)c1c(C)n([O-])c2cc(Cl)c(Cl)cc2[n+]1=O was tested. Which IC50 did it give?
Its IC50 is 5.48 µg/mL (≈ 19.1 µM).

How did the IC50 turn out when Cc1ccc(C2=CC(c3cccc([N+](=O)[O-])c3)n3nnnc3N2)cc1C (stereo not drawn) was run?
The IC50 was 12.2 µg/mL (≈ 35 µM).

With CSc1cccc(NC(=O)CSc2ccc(F)cc2)c1 as the compound, how does the IC50 read?
The IC50 was 2.86 µg/mL (≈ 9.3 µM).

For COC(=O)C1=C(C)N(c2cc(Cl)cc(Cl)c2)C(=O)C1, which IC50 is on record?
The IC50 was 6.04 µg/mL (≈ 20.1 µM).

With O=C(CC(O)(C(F)(F)F)C(F)(F)F)Nc1ccc(Cl)c(Cl)c1 as the compound, how does the IC50 read?
Its IC50 is 1.51 µg/mL (≈ 4.08 µM).

O=C1C(Cl)=C(N2CCOCC2)C(=O)N1c1cccc(Cl)c1Cl was tested. Which IC50 did it give?
The IC50 was 20.9 µg/mL (≈ 57.7 µM).

How did the IC50 turn out when Cc1ccc(C)c(N2C(=O)c3cccc4c([N+](=O)[O-])ccc(c34)C2=O)c1 was run?
The IC50 was 0.76 µg/mL (≈ 2.19 µM).
